Each block holds one molecule with its values, some of them ahead of it.
What was measured:
[1] = target: T1, bonsai cohesin trimer (Smc1^B, Smc3^B, Scc1) (Homo sapiens, UniProt Q14683+Q9UQE7, Q14683:DEL201-498/Q9UQE7:DEL205-491/Q14683:DEL676-977/Q9UQE7:DEL686-956); experiment: radiolabelled ATPase assay, thin layer chromatography of released […]-Pi; format: biochemical; conditions: labelled compound (γ-32P)
T1 construct: gene SMC1A; coiled coils of Smc1 and Smc3 truncated and replaced by two-residue linkers (superscript B = bonsai, not the SMC1B paralogue); Smc3^B-FLAG, Scc1-10HIS tags; co-expressed from baculovirus in Sf9; stoichiometric trimer, 222 kDa; with Double-strand-break repair protein rad21 homolog

[2] = target: T2, bonsai cohesin trimer (Smc1^B, Smc3^B, Scc1) (Homo sapiens, UniProt Q14683+Q9UQE7, Q9UQE7:K38A/Q14683:DEL201-498/Q9UQE7:DEL205-491/Q14683:DEL676-977/Q9UQE7:DEL686-956); experiment: as above; format: biochemical; conditions: labelled compound (γ-32P); ATP-binding region mutant, ATPase largely abolished
T2 construct: gene SMC1A; coiled coils of Smc1 and Smc3 truncated and replaced by two-residue linkers (superscript B = bonsai, not the SMC1B paralogue); Smc3^B-FLAG, Scc1-10HIS tags; co-expressed from baculovirus in Sf9; stoichiometric trimer, 222 kDa; with Double-strand-break repair protein rad21 homolog

[3] = target: T1, bonsai cohesin trimer (Smc1^B, Smc3^B, Scc1); experiment: differential scanning fluorimetry (thermal shift); format: binding; conditions: slowly hydrolysable ATP analogue; stabilises the complex; trimer inferred from context
Pds5B^10HIS [4] = target: T3, Pds5B^10HIS (human, UniProt Q9NTI5 1-1447); experiment: cross-linking; chemical crosslinking followed by mass spectrometry of purified bonsai cohesin (co-expressed subunits) bound to Pds5B; 102 inter- and 244 intramolecular crosslinks; details in the Supplementary Methods; conditions: both partners purified
T3 construct: Pds5B, human, recombinant; printed mass 165 kDa; source: sf9 cells (baculovirus), purified (Ni-NTA; imidazole removed by dilution and concentration or by size-exclusion chromatography on Superdex 200), freeze-thawed
T3 sequence (looked up): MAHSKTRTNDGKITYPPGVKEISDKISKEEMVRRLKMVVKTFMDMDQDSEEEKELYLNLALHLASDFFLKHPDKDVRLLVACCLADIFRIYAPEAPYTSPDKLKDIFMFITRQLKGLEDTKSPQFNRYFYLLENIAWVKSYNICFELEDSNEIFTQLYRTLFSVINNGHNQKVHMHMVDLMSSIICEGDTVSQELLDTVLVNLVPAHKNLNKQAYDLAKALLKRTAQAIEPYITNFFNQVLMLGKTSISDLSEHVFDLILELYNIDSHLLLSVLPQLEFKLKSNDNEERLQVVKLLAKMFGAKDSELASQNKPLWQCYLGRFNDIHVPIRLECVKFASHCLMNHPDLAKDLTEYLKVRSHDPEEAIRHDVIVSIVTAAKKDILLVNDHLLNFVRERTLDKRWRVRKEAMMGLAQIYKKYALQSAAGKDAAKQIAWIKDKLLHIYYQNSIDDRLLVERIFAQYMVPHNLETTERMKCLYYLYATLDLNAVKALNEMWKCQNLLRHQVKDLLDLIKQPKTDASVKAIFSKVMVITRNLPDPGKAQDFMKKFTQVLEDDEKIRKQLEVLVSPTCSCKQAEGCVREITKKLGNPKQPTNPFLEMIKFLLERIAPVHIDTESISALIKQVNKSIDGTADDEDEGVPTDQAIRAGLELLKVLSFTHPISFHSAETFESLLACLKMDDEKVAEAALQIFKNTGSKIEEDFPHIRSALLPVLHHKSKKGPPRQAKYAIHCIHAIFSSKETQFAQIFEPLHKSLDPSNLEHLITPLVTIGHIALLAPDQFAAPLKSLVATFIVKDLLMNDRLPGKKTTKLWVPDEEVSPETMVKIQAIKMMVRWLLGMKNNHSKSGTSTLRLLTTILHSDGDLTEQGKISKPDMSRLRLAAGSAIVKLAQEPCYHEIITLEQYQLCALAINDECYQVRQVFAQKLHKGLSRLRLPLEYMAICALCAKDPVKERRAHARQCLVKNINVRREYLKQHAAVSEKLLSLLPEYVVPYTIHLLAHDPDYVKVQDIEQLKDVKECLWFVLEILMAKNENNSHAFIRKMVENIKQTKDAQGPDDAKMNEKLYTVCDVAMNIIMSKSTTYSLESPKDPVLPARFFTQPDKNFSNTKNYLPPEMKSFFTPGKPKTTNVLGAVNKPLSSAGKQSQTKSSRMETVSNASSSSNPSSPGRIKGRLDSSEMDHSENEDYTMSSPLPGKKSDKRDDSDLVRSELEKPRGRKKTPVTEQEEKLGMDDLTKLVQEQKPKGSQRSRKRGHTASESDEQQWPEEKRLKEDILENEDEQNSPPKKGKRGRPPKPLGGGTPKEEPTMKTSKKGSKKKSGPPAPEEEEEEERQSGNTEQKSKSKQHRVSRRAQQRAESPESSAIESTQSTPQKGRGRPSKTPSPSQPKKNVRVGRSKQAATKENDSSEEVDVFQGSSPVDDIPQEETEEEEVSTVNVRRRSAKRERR

Pds5B^10HIS [5] = target: T3, Pds5B^10HIS; experiment: negative staining EM, single-particle 3D reconstruction; GraFix-prepared complexes (0.1% glutaraldehyde gradient, ATPγS), uranyl formate stain; 3D models at 28-35 Å; densities assigned by difference maps; conditions: both partners purified

Molecule: Nc1ncnc2c1ncn2[C@@H]1O[C@H](COP(=O)(O)OP(=O)(O)OP(=O)(O)O)[C@@H](O)[C@H]1O [ATP]
radiolabelled ATPase assay, thin layer chromatography of released 32P-Pi [1]: Bonsai trimers containing wild-type NBDs ... were able to hydrolyse ATP | radiolabelled ATPase assay, thin layer chromatography of released 32P-Pi [2]: The single point mutation largely abolished bonsai cohesin's ATPase activity

Molecule: Nc1ncnc2c1ncn2[C@@H]1O[C@H](COP(=O)(O)OP(=O)(O)OP(O)(O)=S)[C@@H](O)[C@H]1O [ATPγS]
differential scanning fluorimetry (thermal shift) [3]: presence of the slowly hydrolyzable ATP-analogue ATPyS, as well as a near physiological pH improved the stability

binding result (Pds5B^10HIS [4]): binds
B1: SA1 (natural protein, human, UniProt Q8WVM7 1-1258, looked up)
chain: MITSELPVLQDSTNETTAHSDAGSELEETEVKGKRKRGRPGRPPSTNKKPRKSPGEKSRIEAGIRGAGRGRANGHPQQNGEGEPVTLFEVVKLGKSAMQSVVDDWIESYKQDRDIALLDLINFFIQCSGCRGTVRIEMFRNMQNAEIIRKMTEEFDEDSGDYPLTMPGPQWKKFRSNFCEFIGVLIRQCQYSIIYDEYMMDTVISLLTGLSDSQVRAFRHTSTLAAMKLMTALVNVALNLSIHQDNTQRQYEAERNKMIGKRANERLELLLQKRKELQENQDEIENMMNSIFKGIFVHRYRDAIAEIRAICIEEIGVWMKMYSDAFLNDSYLKYVGWTLHDRQGEVRLKCLKALQSLYTNRELFPKLELFTNRFKDRIVSMTLDKEYDVAVEAIRLVTLILHGSEEALSNEDCENVYHLVYSAHRPVAVAAGEFLHKKLFSRHDPQAEEALAKRRGRNSPNGNLIRMLVLFFLESELHEHAAYLVDSLWESSQELLKDWECMTELLLEEPVQGEEAMSDRQESALIELMVCTIRQAAEAHPPVGRGTGKRVLTAKERKTQIDDRNKLTEHFIITLPMLLSKYSADAEKVANLLQIPQYFDLEIYSTGRMEKHLDALLKQIKFVVEKHVESDVLEACSKTYSILCSEEYTIQNRVDIARSQLIDEFVDRFNHSVEDLLQEGEEADDDDIYNVLSTLKRLTSFHNAHDLTKWDLFGNCYRLLKTGIEHGAMPEQIVVQALQCSHYSILWQLVKITDGSPSKEDLLVLRKTVKSFLAVCQQCLSNVNTPVKEQAFMLLCDLLMIFSHQLMTGGREGLQPLVFNPDTGLQSELLSFVMDHVFIDQDEENQSMEGDEEDEANKIEALHKRRNLLAAFSKLIIYDIVDMHAAADIFKHYMKYYNDYGDIIKETLSKTRQIDKIQCAKTLILSLQQLFNELVQEQGPNLDRTSAHVSGIKELARRFALTFGLDQIKTREAVATLHKDGIEFAFKYQNQKGQEYPPPNLAFLEVLSEFSSKLLRQDKKTVHSYLEKFLTEQMMERREDVWLPLISYRNSLVTGGEDDRMSVNSGSSSSKTSSVRNKKGRPPLHKKRVEDESLDNTWLNRTDTMIQTPGPLPAPQLTSTVLRENSRPMGDQIQEPESEHGSEPDFLHNPQMQISWLGQPKLEDLNRKDRTGMNYMKVRTGVRHAVRGLMEEDAEPIFEDVMMSSRSQLEDMNEEFEDTMVIDLPPSRNRRERAELRPDFFDSAAIIEDDSGFGMPMF
notes: SA1, human (146 kDa printed)

binding result (Pds5B^10HIS [5]): binds
B2: Scc1^10HIS (natural protein, human, UniProt O60216 1-631, looked up)
chain: MFYAHFVLSKRGPLAKIWLAAHWDKKLTKAHVFECNLESSVESIISPKVKMALRTSGHLLLGVVRIYHRKAKYLLADCNEAFIKIKMAFRPGVVDLPEENREAAYNAITLPEEFHDFDQPLPDLDDIDVAQQFSLNQSRVEEITMREEVGNISILQENDFGDFGMDDREIMREGSAFEDDDMLVSTTTSNLLLESEQSTSNLNEKINHLEYEDQYKDDNFGEGNDGGILDDKLISNNDGGIFDDPPALSEAGVMLPEQPAHDDMDEDDNVSMGGPDSPDSVDPVEPMPTMTDQTTLVPNEEEAFALEPIDITVKETKAKRKRKLIVDSVKELDSKTIRAQLSDYSDIVTTLDLAPPTKKLMMWKETGGVEKLFSLPAQPLWNNRLLKLFTRCLTPLVPEDLRKRRKGGEADNLDEFLKEFENPEVPREDQQQQHQQRDVIDEPIIEEPSRLQESVMEASRTNIDESAMPPPPPQGVKRKAGQIDPEPVMPPQQVEQMEIPPVELPPEEPPNICQLIPELELLPEKEKEKEKEKEDDEEEEDEDASGGDQDQEERRWNKRTQQMLHGLQRALAKTGAESISLLELCRNTNRKQAAAKFYSFLVLKKQQAIELTQEEPYSDIIATPGPRFHII
notes: Scc1 (Rad21, Mcd1), human; also called Rad21; Mcd1

From article PMC4996973, “Topology and structure of an engineered human cohesin complex bound to Pds5B” (Nature Communications, 2016)
